{
  "source": "paper PMC12700101",
  "about": "(2025)",
  "key": {"[1]": {"tested_on": "Dopamine DBS FAM(+T)–IABkFQ (DNA, aptamer, 6-FAM-dT (azide click) at 33) AAATACAACAAGAAAAAACTCTCGGGACGACGTACCAGTTTGAAGGTTCGTTCGCAGGTGTGGAGTGACGTCGTCCC", "experiment": "fluorescence strand-displacement titration", "conditions": "1x PBS, 2 mM MgCl2; apparent; pH 8.0, 25 °C; displaced 42-nt 5'-IABkFQ strand, 4 eq"}, "[2]": {"tested_on": "Dopamine DBS FAM(+T)/BHQ-1 (term.) (DNA, aptamer, 6-FAM-modified dT (click, i6-FAMK) at 33) AAATACAACAAGAAAAAACTCTCGGGACGACGTCCAGTTTGAAGGTTCGTTCGCAGGTGTGGAGTGACGTCGTCCC", "experiment": "fluorescence melting", "conditions": "1x PBS, 2 mM MgCl2; pH 8.0; 50 µM dopamine; derived from two Tm (48.4, 48.3); displacement strand 1:4"}, "[3]": {"tested_on": "Dopamine DBS Cy3–IABkFQ (DNA, aptamer) AAATACAACAAGAAAAAACTCTCGGGACGACGACCAGTTTGAAGGTTCGTTCGCAGGTGTGGAGTGACGTCGTCCC", "experiment": "fluorescence strand-displacement titration", "conditions": "1x PBS, 2 mM MgCl2; apparent; pH 8.0, 25 °C; displaced 42-nt 5'-IABkFQ strand, 4 eq"}, "[4]": {"tested_on": "Dopamine MAB Cy3–BHQ-2 (DNA, aptamer) ACGCCAGTTTGAAGGTTCGTTCGCAGGTGTGGAGTGACGT", "experiment": "fluorescence melting", "conditions": "1x PBS, 2 mM MgCl2; derived from two Tm (49.4 ± 0.8, 53.3 ± 0.8); 50 µM dopamine, pH 8.0"}, "[5]": {"tested_on": "Dopamine DBS Cy3(+T)–IABkFQ (DNA, aptamer) AAATACAACAAGAAAAAACTCTCGGGACGACGTACCAGTTTGAAGGTTCGTTCGCAGGTGTGGAGTGACGTCGTCCC", "experiment": "fluorescence strand-displacement titration", "conditions": "1x PBS, 2 mM MgCl2; apparent; pH 8.0, 25 °C; displaced 42-nt 5'-IABkFQ strand, 4 eq"}, "[6]": {"tested_on": "Dopamine DBS Cy3/BHQ-1 (P3) (DNA, aptamer) AAATACAACAAGAAAAAACTCTCGGGACGACGCCAGTTTGAAGGTTCGTTCGCAGGTGTGGAGTGACGTCGTCCC", "experiment": "fluorescence melting", "conditions": "1x PBS, 2 mM MgCl2; pH 8.0; 50 µM dopamine; derived from two Tm (50.3, 50.1); displacement strand 1:4"}, "[7]": {"tested_on": "Dopamine DBS FAM(+T)–BHQ-1 (Position 1) (DNA, aptamer, 6-FAM-dT (azide click) at 33) AAATACAACAAGAAAAAACTCTCGGGACGACGTACCAGTTTGAAGGTTCGTTCGCAGGTGTGGAGTGACGTCGTCCC", "experiment": "fluorescence strand-displacement titration", "conditions": "1x PBS, 2 mM MgCl2; apparent; pH 8.0, 25 °C; displaced 42-nt 5'-BHQ-1 strand, 4 eq"}, "[8]": {"tested_on": "Dopamine MAB Cy3–BHQ-1 (DNA, aptamer) ACGCCAGTTTGAAGGTTCGTTCGCAGGTGTGGAGTGACGT", "experiment": "fluorescence quenching titration (molecular aptamer beacon)", "conditions": "1x PBS, 2 mM MgCl2; apparent; pH 8.0, 25 °C"}, "[9]": {"tested_on": "Dopamine MAB BHQ-1–FAM (DNA, aptamer) ACGCCAGTTTGAAGGTTCGTTCGCAGGTGTGGAGTGACGT", "experiment": "fluorescence quenching titration (molecular aptamer beacon)", "conditions": "1x PBS, 2 mM MgCl2; apparent; pH 8.0, 25 °C"}, "[10]": {"tested_on": "Dopamine DBS Cy3–BHQ-1 (Position 1/Adjacent) (DNA, aptamer) AAATACAACAAGAAAAAACTCTCGGGACGACGACCAGTTTGAAGGTTCGTTCGCAGGTGTGGAGTGACGTCGTCCC", "experiment": "fluorescence melting", "conditions": "1x PBS, 2 mM MgCl2; derived from two Tm (51.7 ± 0.1, 50.9 ± 0.1) of aptamer–displacement duplex; 50 µM dopamine, pH 8.0"}, "[11]": {"tested_on": "Dopamine DBS Cy3(+T)/BHQ-1 (int.) (DNA, aptamer) AAATACAACAAGAAAAAACTCTCGGGACGACGTCCAGTTTGAAGGTTCGTTCGCAGGTGTGGAGTGACGTCGTCCC", "experiment": "fluorescence melting", "conditions": "1x PBS, 2 mM MgCl2; pH 8.0; 50 µM dopamine; derived from two Tm (50.3, 49.9); displacement strand 1:4"}, "[12]": {"tested_on": "Dopamine DBS Cy3(+T)/BHQ-1 (term.) (DNA, aptamer) AAATACAACAAGAAAAAACTCTCGGGACGACGTCCAGTTTGAAGGTTCGTTCGCAGGTGTGGAGTGACGTCGTCCC", "experiment": "fluorescence melting", "conditions": "1x PBS, 2 mM MgCl2; pH 8.0; 50 µM dopamine; derived from two Tm (50.8, 50.0); displacement strand 1:4"}, "[13]": {"tested_on": "Dopamine MAB BHQ-1–FAM (DNA, aptamer) ACGCCAGTTTGAAGGTTCGTTCGCAGGTGTGGAGTGACGT", "experiment": "fluorescence melting", "conditions": "1x PBS, 2 mM MgCl2; derived from two Tm (40.0 ± 0.2, 37.3 ± 0.1); 50 µM dopamine, pH 8.0"}, "[14]": {"tested_on": "Dopamine DBS Cy3(+T)–BHQ-1 Terminal (DNA, aptamer) AAATACAACAAGAAAAAACTCTCGGGACGACGTACCAGTTTGAAGGTTCGTTCGCAGGTGTGGAGTGACGTCGTCCC", "experiment": "fluorescence strand-displacement titration", "conditions": "1x PBS, 2 mM MgCl2; apparent; pH 8.0, 25 °C; displaced 43-nt strand, 5'-BHQ-1 plus T, 4 eq"}, "[15]": {"tested_on": "Dopamine DBS Cy3–BHQ-1 (Int.) (DNA, aptamer) AAATACAACAAGAAAAAACTCTCGGGACGACGACCAGTTTGAAGGTTCGTTCGCAGGTGTGGAGTGACGTCGTCCC", "experiment": "fluorescence strand-displacement titration", "conditions": "1x PBS, 2 mM MgCl2; apparent; pH 8.0, 25 °C; displaced 42-nt strand, internal BHQ-1, 4 eq"}, "[16]": {"tested_on": "Dopamine DBS BHQ-1/Cy3 (1:1) (DNA, aptamer) AAATACAACAAGAAAAAACTCTCGGGACGACGCCAGTTTGAAGGTTCGTTCGCAGGTGTGGAGTGACGTCGTCCC", "experiment": "fluorescence melting", "conditions": "1x PBS, 2 mM MgCl2; pH 8.0; 50 µM dopamine; derived from two Tm (51.0, 50.6); displacement strand 1:1"}},
  "data": [
    {"smiles": "NCCc1ccc(O)c(O)c1", "values": [
      {"measurement": "Kd", "setting": "[1]", "value": "19.6 ± 0.9", "unit": "µM"},
      {"measurement": "Tm", "setting": "[2]", "value": -0.1, "unit": "°C"},
      {"measurement": "Kd", "setting": "[3]", "value": "85.0 ± 15.6", "unit": "µM"},
      {"measurement": "Tm", "setting": "[4]", "value": 3.9, "unit": "°C"},
      {"measurement": "Kd", "setting": "[5]", "value": "41.8 ± 5.0", "unit": "µM"},
      {"measurement": "Tm", "setting": "[6]", "value": -0.2, "unit": "°C"},
      {"measurement": "Kd", "setting": "[7]", "value": "6.1 ± 0.7", "unit": "µM"},
      {"measurement": "Kd", "setting": "[8]", "value": "53.8 ± 8.8", "unit": "µM"},
      {"measurement": "Kd", "setting": "[9]", "value": "5.3 ± 0.8", "unit": "µM"},
      {"measurement": "Tm", "setting": "[10]", "value": -0.8, "unit": "°C"},
      {"measurement": "Tm", "setting": "[11]", "value": -0.4, "unit": "°C"},
      {"measurement": "Tm", "setting": "[12]", "value": -0.8, "unit": "°C"},
      {"measurement": "Tm", "setting": "[13]", "value": -2.7, "unit": "°C"},
      {"measurement": "Kd", "setting": "[14]", "value": "40.1 ± 5.0", "unit": "µM"},
      {"measurement": "Kd", "setting": "[15]", "value": "34.0 ± 3.3", "unit": "µM"},
      {"measurement": "Tm", "setting": "[16]", "value": -0.4, "unit": "°C"}
    ]}
  ]
}
